# Results published in patent US6673827B1, “Methods of treating fungal infections with inhibitors of NAD synthetase enzyme” (priority 1999, dated 2004).
# Like-named read-outs stand apart in the source and are kept apart here.
# Experiments:
# [1] = tested on: Candida albicans LH-000664533; test: In vitro study of inhibition of growth and lethality against yeast (MIC/MLC susceptibility test), isolate D; format: cell-based; conditions: Candida albicans, Candida albicans, 2nd pair of lines, isolate assigned by line order
# [2] = In vivo toxicity: intraperitoneal (IP) dosage in mice resulting in 50% lethality (LD50); conditions: mouse, in vivo; male CD-1 mice, single IP dose, observed 14 days
# [3] = tested on: Candida tropicalis ATCC 28707; test: In vitro study of inhibition of growth and lethality against yeast (MIC/MLC susceptibility test), isolate B; format: cell-based; conditions: Candida tropicalis, 1st pair of lines, isolate assigned by line order
# [4] = tested on: Candida tropicalis (ATCC 750); test: Minimum Inhibitory Concentration (MIC) against yeast, broth dilution; format: cell-based; conditions: Candida tropicalis, ATCC750; 37° C., 20 hours, mean of duplicate
# [5] = tested on: Candida tropicalis (ATCC 28707-amphotericin B-resistant); test: as above; format: cell-based; conditions: Candida tropicalis, ATCC28707, 37° C., 20 hours, mean of duplicate
# [6] = target: T1, NAD synthetase (recombinant protein from B. subtilis; purified) (Bacillus subtilis, UniProt P08164); test: NAD synthetase enzyme inhibition assay (coupled enzymatic assay, HTS); format: biochemical
# T1 construct: made in house
# T1 sequence (P08164 whole entry): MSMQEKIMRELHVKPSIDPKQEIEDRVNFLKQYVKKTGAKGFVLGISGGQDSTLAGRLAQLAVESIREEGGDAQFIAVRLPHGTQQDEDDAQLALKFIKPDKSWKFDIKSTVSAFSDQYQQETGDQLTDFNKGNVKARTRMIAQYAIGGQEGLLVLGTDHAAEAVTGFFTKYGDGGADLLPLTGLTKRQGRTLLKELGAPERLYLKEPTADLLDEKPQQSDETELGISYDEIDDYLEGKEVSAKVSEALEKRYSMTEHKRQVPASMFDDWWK
# [7] = tested on: Cryptococcus neoformans DLB-1027594CNC; test: In vitro study of inhibition of growth and lethality against yeast (MIC/MLC susceptibility test), isolate G; format: cell-based; conditions: Cryptococcus neoformans, 1st pair of lines, isolate assigned by line order
# [8] = tested on: Candida albicans KJP-000531594; test: In vitro study of inhibition of growth and lethality against yeast (MIC/MLC susceptibility test), isolate C; format: cell-based; conditions: Candida albicans, Candida albicans, 1st pair of lines
# [9] = tested on: Candida tropicalis ATCC 750; test: In vitro study of inhibition of growth and lethality against yeast (MIC/MLC susceptibility test), isolate A; format: cell-based; conditions: Candida tropicalis, 2nd pair of lines, isolate assigned by line order
# [10] = tested on: Candida albicans (ATCC 10231); test: Minimum Inhibitory Concentration (MIC) against yeast, broth dilution; format: cell-based; conditions: Candida albicans, ATCC10231; 37° C., 20 hours, mean of duplicate; read-out: MIC Candida albicans (ATCC 10231)
# [11] = tested on: Torulopsis glabrata ERH-BC9938274; test: In vitro study of inhibition of growth and lethality against yeast (MIC/MLC susceptibility test), isolate F; format: cell-based; conditions: Nakaseomyces glabratus, Torulopsis glabrata, 1st pair of lines, isolate assigned by line order
# [12] = tested on: Torulopsis glabrata JHC-BC9951635; test: In vitro study of inhibition of growth and lethality against yeast (MIC/MLC susceptibility test), isolate E; format: cell-based; conditions: Torulopsis glabrata, 2nd pair of lines, isolate assigned by line order
# [13] = tested on: Cryptococcus neoformans SLP-BC0012854; test: In vitro study of inhibition of growth and lethality against yeast (MIC/MLC susceptibility test), isolate H; format: cell-based; conditions: Cryptococcus neoformans, 2nd pair of lines, isolate assigned by line order
smiles,measurement,setting,value
COC(=O)c1cc2cc(OCc3ccccc3)ccc2n1CCCCCCCOC(=O)Cc1ccc([N+](C)(C)C)cc1.[I-] [Compound 988],MIC,"[1]; LH000664533, 24 h, read at 24 hr, read-out: Minimum Inhibitory Conc. (MIC), 24 hr.",1 µg/mL
same,MIC,"[1]; LH000664533, 48 h, read at 48 hr, read-out: Minimum Inhibitory Conc. (MIC), 48 hr.",2 µg/mL
same,MFC,"[1]; LH000664533, read-out: Minimum Lethal Conc. (MLC)",2 µg/mL
same,LD50 at 14 days,[2],135 mg/kg
same,MFC,"[3]; ATCC28707, read-out: Minimum Lethal Conc. (MLC)",1 µg/mL
same,"Minimum Inhibitory Conc. (MIC), 24 hr.",[3]; read at 24 hr,1 µg/mL
same,"Minimum Inhibitory Conc. (MIC), 48 hr.",[3]; read at 48 hr,1 µg/mL
same,MIC,"[3]; ATCC28707, 24 h, read at 24 hr, read-out: Minimum Inhibitory Conc. (MIC), 24 hr.",0.5 µg/mL
same,MIC,"[3]; ATCC28707, 48 h, read at 48 hr, read-out: Minimum Inhibitory Conc. (MIC), 48 hr.",0.5 µg/mL
same,MIC,[4],0.024 µg/mL
same,MIC,[5],0.15 µg/mL
same,IC50,[6],10 µM
same,IC50,"[6]; IC50 (μg/mL) for Inhibit. of NAD Synthetase, table of structures used in the yeast assay (Example 4)",14.3 µM
same,"Minimum Inhibitory Conc. (MIC), 72 hr.",[7]; read at 72 hr,2 µg/mL
same,MIC,"[7]; DLB1027594CNC, 48 h, read at 48 hr, read-out: Minimum Inhibitory Conc. (MIC), 48 hr.",1 µg/mL
same,MIC,"[7]; DLB1027594CNC, 72 h, read at 72 hr, read-out: Minimum Inhibitory Conc. (MIC), 72 hr.",1 µg/mL
same,MFC,"[7]; DLB1027594CNC, read-out: Minimum Lethal Conc. (MLC)",4 µg/mL
same,MIC,"[8]; KJP000531594, 24 h, read at 24 hr, isolate not given, assigned by line order and MLC of Table 4B, read-out: Minimum Inhibitory Conc. (MIC), 24 hr.",1 µg/mL
same,MIC,"[8]; KJP000531594, 48 h, read at 48 hr, isolate assigned by line order, read-out: Minimum Inhibitory Conc. (MIC), 48 hr.",1 µg/mL
same,MFC,"[8]; KJP000531594, isolate assigned by line order, read-out: Minimum Lethal Conc. (MLC)",1 µg/mL
same,MFC,"[9]; ATCC750, read-out: Minimum Lethal Conc. (MLC)",1 µg/mL
same,MIC,"[9]; ATCC750, 24 h, read at 24 hr, read-out: Minimum Inhibitory Conc. (MIC), 24 hr.",1 µg/mL
same,MIC,"[9]; ATCC750, 48 h, read at 48 hr, read-out: Minimum Inhibitory Conc. (MIC), 48 hr.",1 µg/mL
same,MIC,[10],0.1 µg/mL
same,MIC,"[11]; ERHBC9938274, 24 h, read at 24 hr, read-out: Minimum Inhibitory Conc. (MIC), 24 hr.",2 µg/mL
same,MIC,"[11]; ERHBC9938274, 48 h, read at 48 hr, read-out: Minimum Inhibitory Conc. (MIC), 48 hr.",2 µg/mL
same,MFC,"[11]; ERHBC9938274, read-out: Minimum Lethal Conc. (MLC)",2 µg/mL
same,MIC,"[12]; Nakaseomyces glabratus, JHCBC9951635, 24 h, read at 24 hr, read-out: Minimum Inhibitory Conc. (MIC), 24 hr.",1 µg/mL
same,MIC,"[12]; Nakaseomyces glabratus, JHCBC9951635, 48 h, read at 48 hr, read-out: Minimum Inhibitory Conc. (MIC), 48 hr.",2 µg/mL
same,MFC,"[12]; Nakaseomyces glabratus, JHCBC9951635, read-out: Minimum Lethal Conc. (MLC)",2 µg/mL
same,"Minimum Inhibitory Conc. (MIC), 24 hr.",[12]; read at 24 hr,2 µg/mL
same,"Minimum Inhibitory Conc. (MIC), 72 hr.",[13]; read at 72 hr,2 µg/mL
same,MIC,"[13]; SLPBC0012854, 48 h, read at 48 hr, read-out: Minimum Inhibitory Conc. (MIC), 48 hr.",1 µg/mL
same,MIC,"[13]; SLPBC0012854, 72 h, read at 72 hr, read-out: Minimum Inhibitory Conc. (MIC), 72 hr.",1 µg/mL
same,MFC,"[13]; SLPBC0012854, read-out: Minimum Lethal Conc. (MLC)",4 µg/mL
